Experimental findings from ChEMBL document CHEMBL1132672, “Substituted 7H-pyrido[4,3-c]carbazoles with potent anti-HIV activity” (Bioorg Med Chem Lett, 1999) are described below.

Values after ≈ are worked out from the molar mass of the structure shown.

Data set [1] concerns H9. Description: Inhibitory concentration required to inhibit uninfected H9 lymphocytic cell growth by 50%. Format: functional, cell-based. The following applies: Homo sapiens.
Data set [2] concerns H9. Description: Inhibitory concentration required to inhibit HIV replication in H9 lymphocytes growth by 50%. It counts as functional, cell-based. The following applies: Homo sapiens.
Data set [3] in a line: Therapeutic index(TI) was evaluated (IC50/EC50). The note with it: read-out: TI.

By IC50 is commonly meant the concentration that inhibits the measured activity by half. A high value points to lower potency. A word on the EC50: it is the concentration that produces a half-maximal response.

Consider `COc1cc2c(c3ccccc3n2C)c2c(NCCN(C)C)nccc12`, for which 0.23 µg/mL (≈ 0.66 µM) corresponded to half-maximal inhibition with H9 [1] (IC50). This compound also had a half-maximal effective concentration (EC50) with H9 [2] of 0.026 µg/mL (≈ 0.0746 µM). Further, in data set [3], the selectivity ratio was 8.9.
On to `COc1cc2c(c3ccccc3n2C)c2c(NCCCO)nccc12`, for which it took 0.15 µg/mL (≈ 0.447 µM) to reach half-maximal inhibition in the data set with H9 [1] (IC50). Further, a half-maximal response in the data set on H9 [2] (EC50) required 0.001 µg/mL (≈ 0.00298 µM). Further, the selectivity ratio in data set [3] came out at 153.
The corresponding values for `COc1cc2c(c3ccccc3n2C)c2c(NCCN)nccc12` are 0.23 µg/mL (≈ 0.718 µM), 0.022 µg/mL (≈ 0.0687 µM) and 10.6.
The corresponding values for `COc1cc2c(c3ccccc3n2C)c2c(Cl)nccc12` are 26 µg/mL (≈ 87.6 µM), 0.19 µg/mL (≈ 0.64 µM) and 136.
Compound `COc1cc2c(c3cnccc13)c1ccccc1n2C` returned an IC50 in the data set with H9 [1] of 2.7 µg/mL (≈ 10.3 µM). For the same compound, in the data set on H9 [2], the EC50 stood at 0.0054 µg/mL (≈ 0.0206 µM). For the same compound, in data set [3], the selectivity ratio was 503.
The corresponding values for `COc1cc2c(c3ccccc3n2C)c2c(NCCN3CCCCC3)nccc12` are 0.24 µg/mL (≈ 0.618 µM), 0.005 µg/mL (≈ 0.0129 µM) and 47.9.
The corresponding values for `COc1cc2c(c3cc(O)ccc3n2C)c2c(Cl)nccc12` are 5 µg/mL (≈ 16 µM), 1.4 µg/mL (≈ 4.48 µM) and 3.6.
